Test results published in patent publication US20070191337A1, “Annellated carbamyl-aza-heterocyclic compounds, a focused library, pharmaceutical compositions, and methods of preparing the same” (priority 2004, published 2007).

Columns and labels:
Assay in all cases: Anticancer activity: growth inhibition in tissue culture (Alamar Blue)
Format in all cases: cell-based
[1] = tested on: DLD-1 (adenocarcinoma of the rectum); details: DLD-1 cells, 30 μM, 48 hours, Alamar Blue fluorescence; result in words
Protocol: (§1) A focused library was compiled to include compounds of general formula 1, as shown in Tables 1.01 to 1.23, and tested for anticancer activity. Anticancer activity of the compounds was measured by their capacity to kill cancerous cells in a tissue culture. Three cell lines representing three types of cancerous tumors were chosen, in particular: DLD-1 (adenocarcinoma of the rectum), DU-145 ([…]), and T-47D (tumor of the mammary gland). All the cell cultures were received from the American Tissue Culture Collection (ATCC). The efficiency of the compounds was assessed by measuring the number of […] cells following treatment with the test compounds over 48 hours. The cells were seeded at a concentration of 5*10^3 cells per hole of a standard 96-hole plate and left overnight for cells to be attached to the hole bottom. Whereupon the test compounds were added to the cells at an ultimate concentration of 30 μM, and the plates were left for 48 hours in an incubator at 37° C. maintaining the 5% CO2/95% air atmosphere at 100% humidity. At the end of the experiment, the medium with the compounds was sucked out of all the holes, and the holes were rinsed twice with physiological solution. […] of Alamar Blue solution was added to each hole, and fluorescence (λex=531 nm, λem=589 nm) was measured immediately after addition and 2 hours thereafter. The rate of fluorescence growth was proportional to the number of cells that survived incubation with the test compounds [John O'Brien, Ian Wilson, Terry Orton and Francois Pognan, “Investigation of the Alamar Blue (resazurin) Fluorescent Dye for the Assessment of Mammalian Cell Cytotoxicity.” Eur. J. Biochem. 2000,b 267, 5421-5426]. The proportion of cell growth suppression was found from the following equation: % of growth inhibition=((ΔΦk−ΔΦi)/ΔΦk)*100%, wherein: ΔΦ means increase in fluorescence over […] following addition of the Alamar Blue solution, and the subscripts […] and i mean, respectively, control cells (grown without any compounds added) and experimental cells (grown in the presence of test compounds).

[2] = tested on: DU-145 (carcinoma of the brain); details: DU-145 cells, 30 μM, 48 hours, Alamar Blue fluorescence; result in words
Protocol: as §1

[3] = tested on: T-47D (tumor of the mammary gland); details: T-47D cells, 30 μM, 48 hours, Alamar Blue fluorescence; result in words
Protocol: as §1

For `CCc1ccc(-c2cc3n(n2)CC(C)(C(=O)NC2CCCCC2)N(CCN2CCCC2)C3=O)cc1` (stereo not drawn) [1.5(3){50}, cyclohexylamide of 6-methyl-4-oxo-5-(2-pyrrolidin-1-yl-ethyl)-2-(4-ethylphenyl)-4,5,6,7-tetrahydropyrazolo[1,5-a]pyrazine-6-carbonic acid], which “suppression of tumor cell growth (% of growth inhibition)” value (“suppression … (% of growth inhibition)” below) [1] is on record?
The value was “equally good at suppressing cell growth in all three cancer tumors”.

What about the “suppression … (% of growth inhibition)” value [2] of the same compound?
The value was “equally good at suppressing cell growth in all three cancer tumors”.

What about the “suppression … (% of growth inhibition)” value [3] of the same compound?
Its value is “equally good at suppressing cell growth in all three cancer tumors”.
